Measurements as given in paper PMC8151276, “An Integrated Approach toward NanoBRET Tracers for Analysis of GPCR Ligand Engagement” (Molecules, 2021).

Tests used:
Assay type in all cases: binding
OXER1 = molecular target: T1, OXER1 (Homo sapiens, UniProt Q8TDS5); test: NanoBRET screen HiBiT-OXER1 in HEK293; settings: OXER1
T1 construct: purchased Promega (in-house HiBiT-GPCR construct library, NanoBRET)
Experimental: (§1) Each tracer candidate was screened across the entire library of HiBiT-GPCR constructs using NanoBRET as the detection modality. As depicted in Figure 4A, the specificity of interactions was evaluated through decrease in BRET due to competitive displacement of a bound tracer by excess parental compound. Each tracer was analyzed for binding to each HiBiT-GPCR fusion in the absence and in the presence of competing parental compound. Briefly, HEK293 cells were transfected with HiBiT-GPCR constructs diluted into promoterless DNA to reduce expression and maximize translocation to the cell surface. Each tracer candidate was then screened at concentrations of 1 μM and 0.1 μM across cells expressing these fusions. Cells were treated for 1.5 h with tracer either alone or in the presence of 20 μM competing parental compound (i.e., control). BRET was measured upon addition of purified LgBiT and subsequent complementation with HiBiT genetically fused to a GPCR. The specificity of interactions was assessed through a decrease in BRET signal due to competitive displacement of the bound tracer. To further gauge the robustness of these interactions, the fold response over the control (i.e., BRETtracer/BRETcontrol) was calculated. We chose a 1.5-fold response, which translates to ≥7-fold signal over noise as the minimal threshold required to score an interaction as positive. […]. Below we highlight the screening results obtained for our exemplary fluorescent tracers based on Clozapine, Amitriptyline and AZD1283.
(§2) HiBiT-GPCR DNA constructs were diluted in 10 mM Tris pH 8 to a final concentration of 0.01 μg/μL, arrayed in 96-well plates and stored at −20 °C. For transfection, HEK293 cells were suspended in Opti-MEM (without phenol red) supplemented with 2% fetal bovine serum (Seradigm) and 100 units/mL penicillin–streptomycin (Gibco) at a final concentration of 220,000 cells/mL and dispensed into white 96-well plates at 90 μL/well. Subsequent transfections and screens were carried using an Agilent Bravo Automated Liquid Handling Platform. First, the 96-well HiBiT DNA arrays were diluted 25-fold in Opti-MEM (without serum or phenol red) to a final concentration of 0.0004 μg/μL and 20 μL of the diluted DNAs were transferred into new 96-well plates. Next, promoterless carrier DNA (1 μg/μL) was diluted 25-fold (0.04 μg/μL) and then dispensed into the diluted arrays at 20 μL/well. Following brief mixing, Viafect transfection reagent (Promega) diluted 16-fold into Opti-MEM was dispensed into the plates at 40 μL/well. After mixing by pipetting, plates were incubated for 10 min on the pipetting station deck. The DNA-transfection reagent complexes were then added to plates containing cells. To facilitate the screen, 10 μL of DNA-transfection reagent complexes were added in duplicates to the top 4 and bottom 4 rows, resulting in two identical 48-well arrays per plate. Plates with transfected cells were incubated for 18–20 h at 37 °C/5% CO2. A screen of each tracer across the entire library using two different concentrations requires duplicate plates of transfected cells. Depending on the number of tracers being screened, transfections can be scaled up using the same ratios. The next day, for each tracer, four 20× screening solutions in tracer dilution buffer (Promega) were prepared: two duplicates at final concentration of 20 μM and two duplicates at a final concentration of 2 μM. A competing unmodified compound was added to one of each duplicate at a final concentration of 400 μM. The four resulting solutions were diluted 4-fold in Opti-MEM without serum or phenol red to generate 5× solutions (5 µM and 0.5 µM tracer +/− 100 μM competing compound). To screen the library, a BioTek MultiFlo FX liquid dispenser was used to dispense 22.5 µL of tracer solution to the top 4 rows and 22.5 µL tracer + competing compound solution to the 4 bottom rows. Plates were briefly mixed on an orbital shaker and incubated for 1.5 h at room temperature. […]

PTGFR = molecular target: T2, PTGFR (Homo sapiens, UniProt P43088); test: NanoBRET screen HiBiT-PTGFR in HEK293; settings: PTGFR
T2 construct: purchased Promega (in-house HiBiT-GPCR construct library, NanoBRET)
Experimental: as §1, §2

HTR5A = molecular target: T3, HTR5A (Homo sapiens, UniProt P47898); test: NanoBRET screen HiBiT-HTR5A in HEK293; settings: HTR5A
T3 construct: purchased Promega (in-house HiBiT-GPCR construct library, NanoBRET)
Experimental: as §1, §2

P2RY4 = molecular target: T4, P2RY4 (Homo sapiens, UniProt P51582); test: NanoBRET screen HiBiT-P2RY4 in HEK293; settings: P2RY4
T4 construct: purchased Promega (in-house HiBiT-GPCR construct library, NanoBRET)
Experimental: as §1, §2

LTB4R2 = molecular target: T5, LTB4R2 (Homo sapiens, UniProt Q9NPC1); test: NanoBRET screen HiBiT-LTB4R2 in HEK293; settings: LTB4R2
T5 construct: purchased Promega (in-house HiBiT-GPCR construct library, NanoBRET)
T5 sequence (Q9NPC1 1-358): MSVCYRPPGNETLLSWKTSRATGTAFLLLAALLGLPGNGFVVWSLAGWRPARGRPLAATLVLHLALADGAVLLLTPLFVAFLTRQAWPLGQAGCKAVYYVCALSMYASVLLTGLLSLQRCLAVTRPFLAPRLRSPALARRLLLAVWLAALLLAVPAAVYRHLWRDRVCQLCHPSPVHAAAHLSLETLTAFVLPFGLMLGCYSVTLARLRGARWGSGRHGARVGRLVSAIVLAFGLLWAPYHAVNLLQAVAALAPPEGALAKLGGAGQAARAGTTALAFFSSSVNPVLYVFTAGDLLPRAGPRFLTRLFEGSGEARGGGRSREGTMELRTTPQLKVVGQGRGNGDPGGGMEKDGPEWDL
Experimental: as §1, §2

GALR1 = molecular target: T6, GALR1 (Homo sapiens, UniProt P47211); test: NanoBRET screen HiBiT-GALR1 in HEK293; settings: GALR1
T6 construct: purchased Promega (in-house HiBiT-GPCR construct library, NanoBRET)
T6 sequence (P47211 1-349): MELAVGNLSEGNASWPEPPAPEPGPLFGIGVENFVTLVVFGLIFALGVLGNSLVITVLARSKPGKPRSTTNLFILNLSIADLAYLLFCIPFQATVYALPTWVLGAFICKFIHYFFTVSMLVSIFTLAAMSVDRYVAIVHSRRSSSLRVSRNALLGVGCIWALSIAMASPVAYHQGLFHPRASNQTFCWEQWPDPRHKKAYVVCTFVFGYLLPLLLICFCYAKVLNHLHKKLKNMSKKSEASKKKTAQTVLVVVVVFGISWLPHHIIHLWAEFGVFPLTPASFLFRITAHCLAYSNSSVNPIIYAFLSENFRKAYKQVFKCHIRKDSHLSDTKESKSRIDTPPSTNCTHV
Experimental: as §1, §2

T3 sequence (P47898 whole entry): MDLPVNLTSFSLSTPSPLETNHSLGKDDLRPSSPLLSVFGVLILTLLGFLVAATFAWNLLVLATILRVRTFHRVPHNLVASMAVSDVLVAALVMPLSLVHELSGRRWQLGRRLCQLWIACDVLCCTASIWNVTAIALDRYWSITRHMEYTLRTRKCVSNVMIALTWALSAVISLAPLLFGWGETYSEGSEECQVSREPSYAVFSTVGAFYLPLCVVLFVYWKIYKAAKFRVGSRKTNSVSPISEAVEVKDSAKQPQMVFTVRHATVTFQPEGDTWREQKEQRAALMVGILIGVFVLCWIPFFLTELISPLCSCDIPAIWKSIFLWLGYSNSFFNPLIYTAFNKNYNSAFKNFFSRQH
T2 sequence (P43088 whole entry): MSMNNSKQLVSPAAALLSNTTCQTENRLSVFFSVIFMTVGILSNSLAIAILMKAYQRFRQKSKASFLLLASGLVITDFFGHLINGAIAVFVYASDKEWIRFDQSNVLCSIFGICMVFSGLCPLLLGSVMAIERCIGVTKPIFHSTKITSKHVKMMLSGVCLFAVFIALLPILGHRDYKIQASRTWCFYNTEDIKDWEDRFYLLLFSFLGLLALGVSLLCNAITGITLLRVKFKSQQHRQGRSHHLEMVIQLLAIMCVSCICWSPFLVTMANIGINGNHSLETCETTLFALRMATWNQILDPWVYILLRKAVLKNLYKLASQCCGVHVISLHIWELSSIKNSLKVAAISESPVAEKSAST
T4 sequence (P51582 whole entry): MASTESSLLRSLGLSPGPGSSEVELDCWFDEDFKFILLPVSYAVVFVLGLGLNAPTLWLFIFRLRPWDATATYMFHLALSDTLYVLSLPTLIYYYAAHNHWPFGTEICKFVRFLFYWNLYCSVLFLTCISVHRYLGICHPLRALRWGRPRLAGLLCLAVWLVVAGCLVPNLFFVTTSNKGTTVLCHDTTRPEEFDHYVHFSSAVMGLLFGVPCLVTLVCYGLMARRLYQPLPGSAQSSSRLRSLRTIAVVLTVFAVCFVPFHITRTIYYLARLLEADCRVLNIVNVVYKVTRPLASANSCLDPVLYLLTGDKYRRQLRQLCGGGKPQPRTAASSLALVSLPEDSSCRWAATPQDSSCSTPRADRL
T1 sequence (Q8TDS5 whole entry): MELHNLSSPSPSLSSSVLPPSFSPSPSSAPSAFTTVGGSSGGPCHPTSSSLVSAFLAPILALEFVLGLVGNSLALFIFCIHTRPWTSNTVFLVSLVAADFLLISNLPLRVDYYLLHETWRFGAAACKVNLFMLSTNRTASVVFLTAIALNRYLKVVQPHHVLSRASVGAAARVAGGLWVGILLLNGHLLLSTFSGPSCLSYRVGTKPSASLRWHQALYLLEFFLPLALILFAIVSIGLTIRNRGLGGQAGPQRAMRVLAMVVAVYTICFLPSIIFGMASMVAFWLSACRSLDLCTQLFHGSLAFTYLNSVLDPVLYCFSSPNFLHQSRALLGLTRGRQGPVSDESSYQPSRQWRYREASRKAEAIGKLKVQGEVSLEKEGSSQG

Row | SMILES | NanoBRET Fold Response (OXER1; tracer 0.1μM) | NanoBRET Fold Response (OXER1; tracer 1μM) | NanoBRET Fold Response (PTGFR; tracer 0.1μM) | NanoBRET Fold Response (PTGFR; tracer 1μM) | NanoBRET Fold Response (HTR5A; tracer 0.1μM) | NanoBRET Fold Response (HTR5A; tracer 1μM) | NanoBRET Fold Response (P2RY4; tracer 0.1μM) | NanoBRET Fold Response (P2RY4; tracer 1μM) | NanoBRET Fold Response (LTB4R2; tracer 0.1μM) | NanoBRET Fold Response (LTB4R2; tracer 1μM) | NanoBRET Fold Response (GALR1; tracer 0.1μM) | NanoBRET Fold Response (GALR1; tracer 1μM)
1 | CC(C)N(CC[C@H](c1ccccc1)c1cc(CCNC(=O)CCOCCOCCOCCOCCNC(=O)CCc2ccc3n2[B-](F)(F)[N+]2=C(c4ccc[nH]4)C=CC2=C3)ccc1O)C(C)C [Tolterodine-2-NB590] | 0.73 | 1.09 | 0.84 | 0.94 | 1.07 | 1.05 | 1.08 | 0.94 | 1.00 | 1.22 | 1.04 | 0.99
2 | CC(C)N(CC[C@H](c1ccccc1)c1cc(CCNC(=O)c2ccc(CNC(=O)CCc3ccc4n3[B-](F)(F)[N+]3=C(c5ccc[nH]5)C=CC3=C4)cc2)ccc1O)C(C)C [Tolterodine-BZ-NB590] | 1.00 | 1.06 | 0.99 | 1.01 | 0.98 | 1.03 | 0.97 | 1.08 | 0.91 | 0.95 | 0.95 | 1.07
3 | CCCn1c(=O)c2[nH]c(-c3ccc(OCC(=O)NCCNC(=O)CCOCCNC(=O)c4ccc(CNC(=O)CCc5ccc6n5[B-](F)(F)[N+]5=C(c7ccc[nH]7)C=CC5=C6)cc4)cc3)nc2n(CCC)c1=O [XAC-3-NB590] | 1.04 | 0.96 | 1.02 | 0.98 | 1.12 | 0.97 | 1.07 | 0.79 | 0.93 | 0.98 | 1.02 | 1.04
